Test results taken from US8304452B2, “Radical scavenger and active oxygen eliminating agent” (InBiotex Inc., priority 2005, dated 2012).

How the values were obtained:
[1] = tested on: VEGF-triggered vascularization; experiment: Vascularization-suppressing action, VEGF matrigel plug (Example 9); assay type: in vivo, C57BL/6 mice; settings: 40 μM in matrigel plug containing 100 ng/mL VEGF; 6 days later; P<0.05; FIG. 9
Description: 5-S-GAD was added to a matrigelplug containing 100 ng/mL VEGF, for injections into female C57BL/6 mice. 6 days later, the matrigel plug was scissored out, to assay the hemoglobin content in the matrigel. The results are shown in mean±standard deviation. Testing were done by the Student's t test (*P<0.05).

[2] = Superoxide anion-scavenging activity, DMPO spin trapping ESR (Example 8); assay type: biochemical; settings: FIG. 8
Description: In a 50 mM phosphate buffer (pH 7.8), 500 μM xanthine and 75 mU/mL xanthine oxidase reacted together. The generated superoxide anion (O^2−) was assayed with a spin trapping agent (DMPO) by the electron spin resonance method (ESR). The resulting signal intensity (I) was normalized with the signal intensity of the inner standard manganese (S). The resulting value was determined as the relative intensity (RI), for comparison between the value in case of the addition of the test substance and the value in case of the addition of PBS. The ESR was measured under the following conditions. MicroWave Powder: 8 mW; Field: 335±5 mT; Scan Time: 2 min; Mod.: 0.1 mT; Amplitude:×125-400; Time Constant: 0.03 sec.

human LDL = experiment: Lipid peroxide-suppressing action: CuSO4-induced LDL oxidation, TBARS assay (Example 1); assay type: biochemical; settings: for Amount of TBARS: 0.2 mg/mL LDL + 5 μM CuSO4, 37° C., 3 hours, mean, n=2
Description: As an action of capturing free group (free radical-scavenging action), the effect of N-β-alanyl-5-S-glutathionyl-3,4-dihydroxyphenylalanine (5-S-GAD) on LDL oxidation was examined. As controls, dopamine and Carnosine (under trade name; N-acetylcarnosine as the ingredient name) used as eye drops for cataract were used. LDL was prepared by a fractionation and centrifugation method. A fraction at a specific gravity of 1.019 to 1.063 g/mL in serum was defined as human LDL. 5 μM CuSO4, 5-S-GAD (3 to 100 μM) and N-acetyl-carnosine (100 μM to 10 mM) or L-carnosine (10 μM to 10 mM) were added to 0.2 mg/mL LDL, for incubation at 37° C. for 3 hours. After termination of the incubation, TBARS (a substance reactive with thiobarbituric acid) was assayed. Although the TBA reaction is a non-specific reaction, the reaction is used for a method of assaying various lipid peroxide products including malone dialdehyde. An experiment of peroxidation with copper sulfate was done twice (N=2). An aqueous solution containing 3.75 mg/mL thiobarbituric acid (TBA), 150 mg/mL trichloroacetic acid (TCA) and 0.25 N hydrochloric acid (HCl) was prepared as the TBA reagent, while tetramethoxypropane was used to prepare standard solutions (2, 5, 10, 20, 40 μM). 100 μL each of an LDL sample or a standard solution was added together with 200 μL of the TBA reagent into an Eppendorf tube (1.5 mL), which was then sealed with a cap for thorough mixing. After heating at 95° C. for 15 minutes, the resulting mixture was cooled in water and centrifuged at 3000 rpm for 5 minutes. The supernatant was assayed of the absorbance (535 nm). Based on the absorbance of the standard solutions, a standard curve was prepared. Based on the standard curve, the amount of TBARS in the LDL sample was calculated (in nmol/mg LDL protein) (mean, n=2, see Table 1 and FIG. 1).

[3] = DPPH-scavenging action (Example 2); assay type: biochemical; settings: for Radical-scavenging ratio (%): DPPH, ambient temperature, 5 minutes, mean, n=2
Description: DPPH (1,1-diphenyl-2-picrylhydrazyl) is one of nitrogen radicals and is a very stable radical, which is commercially available as a black-purple crystal (Wako Pure Chemical, Co., Ltd., etc.). N-β-Alanyl-5-S-glutathionyl-3,4-dihydroxyphenylalanine (5-S-GAD) (see Table 2) or Carnosine (under trade name) (see Table 3) was added to an ethanol solution of […] DPPH radical, for reaction at ambient temperature for 5 minutes (see the following reaction scheme). Instead of the test reagent, distilled water was added to the ethanol solution, which was used as a background. The DPPH absorbance at 517 nm was assayed, to calculate the scavenging ratio (%) of the DPPH radical according to the following equation. The scavenging ratio was defined as radical scavenger activity (mean, n=2; see Table 2, Table 3 and FIG. 2).
Radical-scavenging ratio (%)=[assay value of background (mean)−assay value of solution at each concentration]/background assay value (mean)]×100

[4] = DPPH-scavenging activity versus TEMPOL (Example 5); assay type: biochemical; settings: 60 μM DPPH, 1 to 1000 μM test substance, 5 minutes; FIG. 5
Description: 5-S-GAD or TEMPOL was added to an ethanol solution of 60 μM DPPH to a final concentration of 1 to 1000 μM, for reaction at ambient temperature for 5 minutes. Subsequently, the concentration of the DPPH radical was measured via the absorbance at 517 nm. The DPPH radical concentration in a reaction solution to which PBS(−) instead of the test substance was added, was used as a control. In the same manner as in Example 2, the scavenging ratio (%) of the DPPH radical was calculated and defined as the radical-scavenging activity (see FIG. 5).

[5] = Superoxide anion-scavenging activity, xanthine/xanthine oxidase, lucigenin chemiluminescence (Example 3); assay type: biochemical; settings: for Radical-scavenging ratio (%) (superoxide anion-scavenging activity): chemiluminescence AUC over 10 minutes, control = 100, mean, n=2
Description: In a 50 mM carbonate buffer (pH 10) containing 200 μM lucigenin, 100 μM xanthine and 1 mU/mL xanthine oxidase reacted together. The chemiluminescence level depending on the generated superoxide anion (O^2−) was assayed with BIOLUMAT (under trade name) (Model type LB 9505, manufactured by EG&G BERTHORD Company) for 10 minutes. The area under the curve indicating the total chemiluminescence over the 10 minutes was calculated. Defining the area under the curve for a group (control) added with PBS(−) instead of the test substance solution at the same amount as that of the solution as 100, the effect of N-β-alanyl-5-S-glutathionyl-3,4-dihydroxyphenylalanine (5-S-GAD) (Table 4) or Carnosine (under trade name) (Table 5) on the increase of chemiluminescence was examined. The suppressive activity thereof was defined as superoxide anion-scavenging activity (%) (mean, n=2; see Table 4, Table 5 and FIG. 3).

## NCCC(=O)N[C@@H](Cc1cc(O)c(O)c(SC[C@H](NC(=O)CC[C@H](N)C(=O)O)C(=O)NCC(=O)O)c1)C(=O)O [5-S-GAD, N-β-alanyl-5-S-glutathionyl-3,4-dihydroxyphenylalanine]
[1]
  suppression of VEGF-triggered vascularization (hemoglobin content in the matrigel): suppressed significantly
[2]
  superoxide anion (O^2−)-scavenging action compared with TEMPOL (in words): excellent superoxide anion (O^2−)-scavenging action compared with TEMPOL
Human LDL; 10 μM added
  Amount of TBARS: 85.683 nmol/mg LDL protein
Human LDL; 30 μM added
  Amount of TBARS: 4.290 nmol/mg LDL protein
Human LDL; 100 μM added
  Amount of TBARS: 2.649 nmol/mg LDL protein
Human LDL; LDL oxidation, TBARS
  anti-oxidation action, level relative to Carnosine (under trade name): 10 fold
  anti-oxidation action, level relative to dopamine: the same level as that of dopamine
[3]; 1 μM added
  Radical-scavenging ratio (%): 3.918%
[3]; 3 μM added
  Radical-scavenging ratio (%): 13.891%
[3]; 10 μM added
  Radical-scavenging ratio (%): 73.762%
[3]; 30 μM added
  Radical-scavenging ratio (%): 93.487%
[3]; summary of Table 2, Table 3 and FIG. 2
  action for scavenging the DPPH radical (in words): strong actions for scavenging the DPPH radical
[4]
  DPPH radical-scavenging action compared with TEMPOL (in words): excellent DPPH radical-scavenging action compared with TEMPOL
[5]; 0.1 μM added
  Radical-scavenging ratio (%) (superoxide anion-scavenging activity): −0.75%
[5]; 1 μM added
  Radical-scavenging ratio (%) (superoxide anion-scavenging activity): 26.03%
[5]; 10 μM added
  Radical-scavenging ratio (%) (superoxide anion-scavenging activity): 78.28%
[5]; 100 μM added
  Radical-scavenging ratio (%) (superoxide anion-scavenging activity): 91.19%
[5]; summary of Table 4, Table 5 and FIG. 3
  action for scavenging the superoxide anion (O^2−) (in words): strong actions for scavenging the superoxide anion (O^2−)
